The assay deals with NLRP3 inflammasome. The experiment in a line: IL-1β Secretion Assay (NLRP3-dependent IL-1β secretion in PMA-differentiated THP-1 cells, nigericin activation, HTRF). Type of assay: cell-based. As to conditions: Homo sapiens, THP-1, THP-1 cells, 100 ng/mL PMA 24 h, compound 20 h, 2.5 μM Nigericin 3 h; read-out: IC50 IL-1β Inhibition. The gist of the method:
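IL-1β release, quantified by HTRF after nigericin activation of the NLRP3 inflammasome, was the read-out. A logistic fit of percent inhibition gave IC50.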
Take `CCN1CCC[C@@H](Nc2nnc(-c3ccc(C(F)(F)F)cc3OC(F)F)c3c(F)ccn23)C1` [Compound I-566]: the IC50 lay in the range of 1 to 10 nM. To `CN1CCCC(Cc2nnc(-c3ccc(C(F)(F)F)cc3O)c3ccncc23)C1` (stereo not shown) [Compound I-567] belongs 10 to 100 nM; to `COC(C)(C)CNc1nnc(-c2ccc(C(F)(F)F)cc2OC(F)F)c2cccn12` [Compound I-568], 1 to 10 nM. With `Cc1cc(O)c(-c2nnc(N[C@@H]3CCCN(C(C)C)C3)n3cccc23)c(F)c1` [Compound I-569], the IC50 is less than 1 nM. For `Cc1cc(O)c(-c2nnc(N[C@@H]3CCCN(CC(F)(F)F)C3)n3cccc23)c(F)c1` [Compound I-570], the IC50 lay in the range of 1 to 10 nM. To `CCN1C[C@H](F)C[C@@H](Nc2nnc(-c3c(O)cc(C)cc3F)c3cccn23)C1` [Compound I-571] belongs less than 1 nM; to `C[C@]1(O)C[C@@H](Nc2nnc(-c3ccc(OC(F)F)cc3OC(F)F)c3cccn23)C1` [Compound I-573], 10 to 100 nM. To `CCN1CCC[C@@H](Nc2nnc(-c3ccc(C(F)(F)F)cc3OC(F)F)c3cncn23)C1` [Compound I-574, (R)-1-(2-(Difluoromethoxy)-4-(trifluoromethyl)phenyl)-N-(1-ethylpiperidin-3-yl)imidazo[1,5-d][1,2,4]triazin-4-amine] belongs less than 1 nM; to `Oc1cc(C(F)(F)F)ccc1-c1nnc(N[C@H]2CNC[C@@H](F)C2)n2cccc12` [Compound I-575], 100 to 300 nM; to `CCN1C[C@H](F)C[C@@H](Nc2nnc(-c3c(O)cc(C4CC4)cc3F)c3cccn23)C1` [Compound I-576], less than 1 nM. On to `C[C@H](O)CNc1nnc(-c2c(O)cc(Cl)cc2F)c2cccn12` [Compound I-577], for which the IC50 was in the range of 10 to 100 nM. As to `Oc1cc(Cl)ccc1-c1nnc(N[C@@H]2CCC[C@H](O)C2)n2cncc12` [Compound I-578], the IC50 is less than 1 nM.

Take `CCN1CCC[C@@H](Nc2nnc(-c3c(O)cc(Cl)cc3F)c3cc(C)nn23)C1` [Compound I-579]: the IC50 was less than 1 nM. On to `Oc1cc(Cl)ccc1-c1nnc(N[C@H]2CCOC2)n2cncc12` [Compound I-580], for which the IC50 was 1 to 10 nM. To `CO[C@H]1CCC[C@@H](Nc2nnc(-c3ccc(Cl)cc3O)c3cncn23)C1` [Compound I-581] belongs 1 to 10 nM. On to `CCN1CCC[C@H]1CNc1nnc(-c2c(O)cc(C)cc2F)c2cccn12` [Compound I-582], for which the IC50 fell in the range of 1 to 10 nM. As to `CCN1CCC[C@H]1CNc1nnc(-c2c(O)cc(C3CC3)cc2F)c2cccn12` [Compound I-583], the IC50 lay within 1 to 10 nM. As for `CCN1CCC[C@@H](Nc2nnc(-c3ccc(OC(F)(F)F)cc3O)c3cc(C)nn23)C1` [Compound I-584], the IC50 is less than 1 nM. `C[C@@H](O)CNc1nnc(-c2ccc(C3CC3)cc2O)c2cccn12` [Compound I-586]: the IC50 lay within 100 to 300 nM. As to `COc1ccc(-c2nnc(NC[C@@H](C)O)n3cccc23)c(O)c1` [Compound I-587], the IC50 fell in the range of 10 to 100 nM. To `C[C@@H](O)CNc1nnc(-c2ccc(C(F)(F)F)cc2O)c2cccn12` [Compound I-588] belongs 10 to 100 nM; to `Cc1cc2c(-c3ccc(C(F)(F)F)cc3OC(F)F)nnc(N[C@@H]3CCCN(C)C3)n2c1` [Compound I-591], 1 to 10 nM; to `CC(C)N1CCC[C@@H](Nc2nnc(-c3ccc(C(F)(F)F)cc3OC(F)F)c3c(F)ccn23)C1` [Compound I-592], less than 1 nM. Consider `C[C@]1(O)C[C@@H](Nc2nnc(-c3ccc(C(F)(F)F)cc3O)c3c(F)ccn23)C1` [Compound I-593], for which the concentration for half-maximal inhibition (IC50) fell in the range of 1 to 10 nM. Regarding `C[C@H](O)CNc1nnc(-c2ccc(C(F)(F)F)cc2O)c2c(F)ccn12` [Compound I-595], the half-maximal inhibitory concentration (IC50) was in the range of 10 to 100 nM. With `CN1C[C@H](F)C[C@@H](Nc2nnc(-c3ccc(C(F)(F)F)cc3O)c3c(F)ccn23)C1` [Compound I-596], the IC50 fell in the range of 1 to 10 nM. On to `CN1C[C@H](O)C[C@@H](Nc2nnc(-c3ccc(C(F)(F)F)cc3O)c3c(F)ccn23)C1` [Compound I-597], for which the half-maximal inhibitory concentration (IC50) lay within 10 to 100 nM. On to `CCN1C[C@H](F)C[C@@H](Nc2nnc(-c3ccc(OC(F)(F)F)cc3O)c3c(F)ccn23)C1` [Compound I-598], for which the IC50 was 1 to 10 nM. As for `CN1CCC[C@@H](Nc2nnc(-c3ccc(C4CC4)cc3O)c3c(F)ccn23)C1` [Compound I-599], the IC50 was in the range of 1 to 10 nM.

As for `CCN1CCC[C@@H](Nc2nnc(-c3ccc(C4CC4)cc3O)c3c(F)ccn23)C1` [Compound I-600], the IC50 was less than 1 nM. For `CN1CCC[C@@H](Nc2nnc(-c3c(O)cc(C4CC4)cc3F)c3c(F)ccn23)C1` [Compound I-601], the IC50 was less than 1 nM. `CCN1CCC[C@@H](Nc2nnc(-c3c(O)cc(C4CC4)cc3F)c3c(F)ccn23)C1` [Compound I-602]: the IC50 is less than 1 nM. As to `CCN1C[C@H](O)C[C@@H](Nc2nnc(-c3ccc(C(F)(F)F)cc3OC(F)F)c3c(F)ccn23)C1` [Compound I-603], the IC50 fell in the range of 100 to 300 nM. To `CCN1CCC[C@@H](Nc2nnc(-c3ccc(OC(F)(F)F)cc3O)c3c(F)ccn23)C1` [Compound I-604] belongs 1 to 10 nM; to `CCN1C[C@H](O)C[C@@H](Nc2nnc(-c3ccc(OC(F)(F)F)cc3O)c3c(F)ccn23)C1` [Compound I-605], 100 to 300 nM. With `CCN1CCC[C@@H](Nc2nnc(-c3c(C)cc(C(F)(F)F)cc3O)c3cccn23)C1` [Compound I-606], the IC50 was less than 1 nM.

For the compound `Cc1cc2c(-c3c(O)cc(C(F)(F)F)cc3F)nnc(N[C@@H]3CCCN(C)C3)n2c1` [Compound I-607], the half-maximal inhibitory concentration (IC50) is less than 1 nM. `Oc1cc(Cl)cc(F)c1-c1nnc(NC2CCCOC2)n2cccc12` (stereo not shown) [Compound I-608]: the IC50 fell in the range of 10 to 100 nM.

On to `CCN1CCC[C@@H](Nc2nnc(-c3ccc(OC(F)(F)F)cc3O)c3cccn23)C1` [Compound I-609], for which the IC50 fell in the range of 1 to 10 nM. `FC(F)Oc1cc(C(F)(F)F)ccc1-c1nnc(NC[C@@H]2CCCO2)n2cccc12` [Compound I-610]: the IC50 fell in the range of 10 to 100 nM. For the compound `FC(F)Oc1cc(C(F)(F)F)ccc1-c1nnc(NC[C@H]2CCCO2)n2cccc12` [Compound I-611], the IC50 fell in the range of 10 to 100 nM.

With `CN1CCC[C@@H](Nc2nnc(-c3ccc(OC(F)F)cc3OC(F)F)c3cccn23)C1` [Compound I-612], the IC50 was 1 to 10 nM. Turning to `CCN1CCC[C@@H](Nc2nnc(-c3ccc(OC(F)F)cc3OC(F)F)c3cccn23)C1` [Compound I-613], the IC50 was 1 to 10 nM. For `OCCN1CCC[C@@H](Nc2nnc(-c3ccc(OC(F)F)cc3OC(F)F)c3cccn23)C1` [Compound I-614], the IC50 lay in the range of 1 to 10 nM. For the compound `CN1C[C@H](F)C[C@@H](Nc2nnc(-c3ccc(OC(F)F)cc3OC(F)F)c3cccn23)C1` [Compound I-615], the half-maximal inhibitory concentration (IC50) was in the range of 10 to 100 nM. The figure for `CCN1CCC[C@@H](Nc2nnc(-c3c(O)cc(OC(F)F)cc3F)c3cccn23)C1` [Compound I-616] is less than 1 nM; for `CN1C[C@H](F)C[C@@H](Nc2nnc(-c3c(O)cc(OC(F)F)cc3F)c3cccn23)C1` [Compound I-617] it is 1 to 10 nM. As to `C[C@]1(O)C[C@@H](Nc2nnc(-c3c(O)cc(OC(F)F)cc3F)c3cccn23)C1` [Compound I-618], the IC50 is 10 to 100 nM. Turning to `CCN1C[C@H](F)C[C@@H](Nc2nnc(-c3c(O)cc(Cl)cc3F)c3cccn23)C1` [Compound I-620], the IC50 lay within 1 to 10 nM.

Source of the values: patent US20240262806A1, “INHIBITORS OF NLRP3” (PTC THERAPEUTICS, INC., priority 2021, published 2024).
